Test results as given in patent US10774051B2, “6-membered heterocyclic derivatives and pharmaceutical composition comprising the same” (Shionogi & Co., Ltd., priority 2015, dated 2020).
Like-named read-outs stand apart in the source and are kept apart here.

Biological target: human P2X7 receptor (Homo sapiens, UniProt Q99572, R270H/Y155H)
Experiment: Evaluation of human P2X7 receptor inhibitory activity (Yo-Pro uptake, BzATP stimulation, FLIPR TETRA)
Type: cell-based
Outline: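 1321N1 cells stably expressing human P2X7 (T606C/G952A SNP variant), in HBSS buffer pH 7.4-7.5 with Yo-Pro, stimulated with BzATP; compound added 8 min after agonist. Fluorescence followed for 20 min on FLIPR; max-minus-min change gave % inhibition, IC50 by logistic fit.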

[1] = 1321N1 cells stably expressing human P2X7 receptor, BzATP stimulation, Yo-Pro uptake, read-out: IC50 (antagonistic activity for the human P2X7 receptor)
[2] = antagonistic activity for the human P2X7 receptor, read-out: IC50
[3] = 1321N1 cells stably expressing human P2X7 receptor, BzATP stimulation, Yo-Pro uptake, read-out: IC50 (antagonistic activity for the human P2X7 receptor), class symbol

Row | Compound | IC50 [2] | IC50 [3] | other results
1 | COc1cn(Cc2cc(F)cc(F)c2)c(Nc2c(C)ccc(C)c2F)nc1=O [Compound I-0928] |  |  | IC50 [1]: 10 nM
2 | COc1cc(C)c(Nc2nc(=O)c(C)c(C)n2Cc2cc(F)cc(F)c2)cc1OC [Compound I-1135] | 10 to 100 nM |  | 
3 | COc1cn(Cc2ccccc2)c(Nc2cc(N3CCOCC3)ccc2C)nc1=O [Compound I-0740] | 100 to 500 nM |  | 
4 | CCOc1cn(Cc2ccccc2)c(Nc2cc(OC)c(OC)cc2C)nc1=O [Compound I-0759] | 10 to 100 nM |  | 
5 | COc1ccc(Nc2nc(=O)c(OC)cn2Cc2cccc(Cl)c2)c(C)c1 [Compound I-0234] |  | 10 to 100 nM | 
6 | CCOc1c(C)cccc1Nc1nc(=O)c(F)cn1Cc1cc(F)c(F)c(F)c1 [Compound I-1223] | < 10 nM |  | 
7 | C=C(C)c1ccc(C)c(Nc2nc(=O)c(OC)cn2Cc2ccc(F)c(F)c2)c1 [Compound I-0747] | 10 to 100 nM |  | 
8 | O=c1nc(Nc2cccc3[nH]ccc23)n(Cc2cc(F)cc(F)c2)cc1F [Compound I-1022] | < 10 nM |  | 
9 | Cc1ccc(-c2nnco2)cc1Nc1nc(=O)c(F)cn1Cc1ccc(F)c(F)c1 [Compound I-0380] |  | 10 to 100 nM | 
10 | O=c1nc(Nc2cccc3c2CCN3)n(Cc2cc(F)c(F)c(F)c2)cc1F [Compound I-0995] | 10 to 100 nM |  | 
11 | COc1cn(Cc2ccccc2F)c(Nc2cc(C)c(Cl)cc2C)nc1=O [Compound I-0167] |  | 10 to 100 nM | 
12 | Cc1ccc(Nc2nc(=O)c(F)cn2Cc2cc(F)c(F)c(F)c2)c(Cl)c1 [Compound I-1184] | < 10 nM |  | 
13 | CCc1cc2c(cc1Nc1nc(=O)c(OC)cn1Cc1ccc(Cl)cc1)CCC2 [Compound I-0195] |  |  | IC50 [1]: 26 nM
14 | COc1cc(C)c(Nc2nc(=O)c(F)cn2Cc2cc(F)c(F)c(F)c2)cc1F [Compound I-1087] | < 10 nM |  | 
15 | COc1cc(C)c(Nc2nc(=O)ccn2Cc2cc(F)c(F)c(F)c2)cc1OC [Compound I-1150] | 10 to 100 nM |  | 
16 | COc1cn(Cc2ccccc2)c(Nc2cccc(SC)c2C)nc1=O [Compound I-0429] |  | < 10 nM | 
17 | Cc1cc(OC(F)F)c(C)cc1Nc1nc(=O)c(Cl)cn1Cc1ccc(F)c(F)c1 [Compound I-0838] | < 10 nM |  | 
18 | COCc1cn(Cc2cc(F)c(F)c(F)c2)c(Nc2ccc3[nH]ccc3c2C)nc1=O [Compound I-1163] | < 10 nM |  | 
19 | CCOc1ccc(Cl)c(Nc2nc(=O)c(F)cn2Cc2cc(F)c(F)c(F)c2)c1 [Compound I-1217] | < 10 nM |  | 
20 | COCc1cn(Cc2cc(F)c(F)c(F)c2)c(Nc2cc(-c3ncco3)ccc2C)nc1=O [Compound I-1129] | 10 to 100 nM |  | 
21 | COc1cn(Cc2ccc(F)c(Cl)c2)c(Nc2cc(Cl)c(Cl)cc2C)nc1=O [Compound I-0426] |  | 10 to 100 nM | 
22 | COc1cn(Cc2ccc(F)c(Cl)c2)c(Nc2cc3sc(C)nc3cc2C)nc1=O [Compound I-0033] |  |  | IC50 [1]: 49 nM
23 | COc1cn(Cc2cc(F)cc(F)c2)c(Nc2ccc3c(c2C)COC3)nc1=O [Compound I-0900] |  |  | IC50 [1]: 12 nM
24 | CCOc1ccc(Nc2nc(=O)c(OC)cn2Cc2ccc(F)c(Cl)c2)c(C)c1 [Compound I-0679] | < 10 nM |  | 

Row | Compound | IC50 [2] | IC50 [3] | other results
25 | COc1cn(Cc2ccc(F)c(Cl)c2)c(Oc2cc3sc(C)nc3cc2C)cc1=O [Compound I-0966] |  |  | IC50 [1]: 480 nM
26 | Cc1cccc(Nc2nc(=O)c(C(=O)O)cn2Cc2ccccc2)c1Cl [Compound I-0112] |  | 10 to 100 nM | 
27 | COc1cn(Cc2ccc(F)c(Cl)c2)c(Nc2ccc3ncsc3c2C)nc1=O [Compound I-0856] | 10 to 100 nM |  | 
28 | CCOc1cc(Nc2nc(=O)c(F)cn2Cc2cc(F)c(F)c(F)c2)c(C)cc1F [Compound I-1030] | < 10 nM |  | 
29 | Cc1c(Nc2nc(=O)c(F)cn2Cc2cc(F)cc(F)c2)ccc2[nH]ccc12 [Compound I-1119] | < 10 nM |  | 
30 | COc1cc(Nc2nc(=O)c(OC)cn2Cc2ccc(F)c(F)c2)c(C)cc1F [Compound I-0779] | < 10 nM |  | 
31 | Cc1cc2[nH]ccc2cc1Nc1nc(=O)c(F)cn1Cc1cc(F)c(F)c(F)c1 [Compound I-1045] | < 10 nM |  | 
32 | CCOc1ccc(C)c(Nc2nc(=O)c(OC)cn2Cc2ccccc2)c1 [Compound I-0455] |  | 10 to 100 nM | 
33 | COc1cn(Cc2ccccc2)c(Nc2cc(OC(C)C)ccc2C)nc1=O [Compound I-0320] |  | 100 to 500 nM | 
34 | COc1cn(Cc2cc(F)c(F)c(F)c2)c(Nc2cccc(C)c2C)nc1=O [Compound I-0569] |  | < 10 nM | 
35 | COCc1cn(Cc2cc(F)c(F)c(F)c2)c(Nc2cc(OC)c(OC)cc2C)nc1=O [Compound I-1144] | 10 to 100 nM |  | 
36 | Cc1cc(C)c(Nc2nc(=O)c(C(=O)NC3CCOCC3)cn2Cc2ccccc2)cc1C [Compound I-0219] |  | 10 to 100 nM | 
37 | COc1cn(Cc2ccc(F)c(F)c2)c(Nc2cc(C(C)(C)O)ccc2C)nc1=O [Compound I-0732] | 10 to 100 nM |  | 
38 | COc1cn(Cc2ccc(F)cc2)c(Nc2cc(C)c(OC(F)F)cc2C)nc1=O [Compound I-0301] |  | < 10 nM | 
39 | COc1cnc(Nc2cccc(Cl)c2C)n(Cc2cccc(Cl)c2)c1=O [Compound I-0969] | 500 to 1000 nM |  | 
40 | COc1cn(Cc2ccccc2)c(Nc2cc3sc(C)nc3cc2C)nc1=O [Compound I-0431] |  | 10 to 100 nM | 
41 | COCCOc1cc(Nc2nc(=O)c(F)cn2Cc2cc(F)c(F)c(F)c2)c(C)cc1F [Compound I-1204] | < 10 nM |  | 
42 | Cc1c(Nc2nc(=O)ccn2Cc2cc(F)c(F)c(F)c2)ccc2[nH]ccc12 [Compound I-1169] | < 10 nM |  | 
43 | CCc1ccc(Nc2nc(=O)c(OC)cn2Cc2ccccc2)c(CC)c1 [Compound I-0210] |  | 10 to 100 nM | 
44 | COc1cc(Nc2nc(=O)c(OC)cn2Cc2cc(F)cc(F)c2)c(C)cc1F [Compound I-0781] | 10 to 100 nM |  | 
45 | COc1cn(Cc2cc(F)c(F)c(F)c2)c(Nc2cc(Oc3ccccn3)ccc2C)nc1=O [Compound I-0899] | < 10 nM |  | 
46 | CCc1cc(OC)ccc1Nc1nc(=O)c(OC)cn1Cc1cccc(F)c1 [Compound I-0261] |  | < 10 nM | 
47 | COc1cc(C)c(Nc2nc(=O)c(OC)cn2Cc2cc(F)cc(Cl)c2)cc1OC [Compound I-0452] |  |  | IC50 [1]: 110 nM
48 | CCc1cc(OC)c(OC)cc1Nc1nc(=O)c(OC)cn1Cc1ccc(F)c(F)c1 [Compound I-0272] |  | < 10 nM | 

Row | Compound | IC50 [2] | IC50 [3] | other results
49 | COc1cn(CCCc2ccccc2)c(Nc2cccc(Cl)c2C)nc1=O [Compound I-0099] |  | 100 to 500 nM | 
50 | COc1cn(Cc2ccccc2)c(Nc2cc(O)ccc2Cl)nc1=O [Compound I-0156] |  | 100 to 500 nM | 
51 | CCOc1cc(Nc2nc(=O)c(OC)cn2Cc2cc(F)c(F)c(F)c2)c(C)cc1F [Compound I-0921] | < 10 nM |  | 
52 | Cc1cc2cc(Nc3nc(=O)c(F)cn3Cc3cc(F)c(F)c(F)c3)c(C)cc2[nH]1 [Compound I-1054] | < 10 nM |  | 
53 | Cc1c(Cl)cccc1Nc1nc(=O)c(Cl)cn1Cc1ccccc1 [Compound I-0011] |  | 10 to 100 nM | 
54 | CON=c1nc(Nc2cc3sc(C)nc3cc2C)n(Cc2cc(F)c(F)c(F)c2)cc1F [Compound I-1291] | 100 to 500 nM |  | 
55 | COc1cn(Cc2cc(F)c(F)c(F)c2)c(Nc2cc3sc(C)nc3cc2C)nc1=NC#N [Compound I-1285] |  |  | IC50 [1]: 27 nM
56 | COc1cc(C)c(Nc2nc(=O)c(OC)cn2Cc2cc(F)cc(Cl)c2)cc1OC [Compound I-0469] |  | < 10 nM | 
57 | COc1cn(Cc2cc(F)cc(Cl)c2)c(Nc2cc(N3CCOCC3)ccc2C)nc1=O [Compound I-0737] | 10 to 100 nM |  | 
58 | COCc1ccc(C)c(Nc2nc(=O)c(F)cn2Cc2ccc(F)c(Cl)c2)c1 [Compound I-1085] | < 10 nM |  | 
59 | COc1cn(Cc2ccc(F)c(Cl)c2)c(Nc2cc(C)c(OC(F)(F)F)cc2C)nc1=O [Compound I-0923] | 10 to 100 nM |  | 
60 | CCOc1cn(Cc2ccc(F)c(Cl)c2)c(Nc2cc(OC)c(OC)cc2C)nc1=O [Compound I-0795] | < 10 nM |  | 
61 | COc1cn(Cc2cc(F)cc(F)c2)c(Nc2cc(-c3ccccc3)ccc2C)nc1=O [Compound I-0829] | 10 to 100 nM |  | 
62 | COc1cn(Cc2cc(F)c(F)c(F)c2)c(Nc2cc(C)c(C)cc2C)nc1=O [Compound I-0574] |  | < 10 nM | 
63 | COc1cn(Cc2ccccc2)c(Nc2cc(-c3nnco3)ccc2C)nc1=O [Compound I-0240] |  | 10 to 100 nM | 
64 | COc1cc(C)c(Nc2nc(=O)c(F)cn2Cc2ccc(F)c(Cl)c2)cc1C [Compound I-0349] |  | < 10 nM | 
65 | COc1ccc(Nc2nc(=O)c(F)cn2Cc2ccc(F)c(F)c2)c(C)n1 [Compound I-1049] | 10 to 100 nM |  | 
66 | COc1ccc(Nc2nc(=O)c(Cl)cn2Cc2cc(F)cc(F)c2)c(C)c1 [Compound I-0845] | 10 to 100 nM |  | 
67 | Cc1cc2c(cc1Nc1nc(=O)c(F)cn1Cc1ccc(F)cc1)OCCO2 [Compound I-0367] |  |  | IC50 [1]: 13 nM
68 | C=C(C)c1ccc(C)c(Nc2nc(=O)c(OC)cn2Cc2cc(F)cc(Cl)c2)c1 [Compound I-0748] | 10 to 100 nM |  | 
69 | CCc1ccc(F)cc1Nc1nc(=O)c(OC)cn1Cc1ccc(F)cc1 [Compound I-0565] |  | 100 to 500 nM | 
70 | COc1ccc(Nc2nc(=O)c(C(=O)O)cn2Cc2cc(F)c(F)c(F)c2)c(C)c1 [Compound I-1099] | 10 to 100 nM |  | 
71 | COc1cc(C)c(Nc2nc(=O)c(OC)cn2Cc2ccccc2)cc1C [Compound I-0220] |  | < 10 nM | 
